Assay results: patent US12030878B2 (BRISTOL-MYERS SQUIBB COMPANY, priority 2017, dated 2024)

Tests used:
Format in all cases: cell-based
[1] = molecular target: T1, human TLR7 (Homo sapiens, UniProt Q9NYK1); test: TLR7 inhibition reporter assay (HEK-Blue SEAP); conditions: HEK-Blue cells overexpressing human TLR7, stimulated with gardiquimod 7.5 μM, 22 hour incubation
T1 construct: host or cells: HEK-Blue cells
T1 sequence (Q9NYK1 27-1049): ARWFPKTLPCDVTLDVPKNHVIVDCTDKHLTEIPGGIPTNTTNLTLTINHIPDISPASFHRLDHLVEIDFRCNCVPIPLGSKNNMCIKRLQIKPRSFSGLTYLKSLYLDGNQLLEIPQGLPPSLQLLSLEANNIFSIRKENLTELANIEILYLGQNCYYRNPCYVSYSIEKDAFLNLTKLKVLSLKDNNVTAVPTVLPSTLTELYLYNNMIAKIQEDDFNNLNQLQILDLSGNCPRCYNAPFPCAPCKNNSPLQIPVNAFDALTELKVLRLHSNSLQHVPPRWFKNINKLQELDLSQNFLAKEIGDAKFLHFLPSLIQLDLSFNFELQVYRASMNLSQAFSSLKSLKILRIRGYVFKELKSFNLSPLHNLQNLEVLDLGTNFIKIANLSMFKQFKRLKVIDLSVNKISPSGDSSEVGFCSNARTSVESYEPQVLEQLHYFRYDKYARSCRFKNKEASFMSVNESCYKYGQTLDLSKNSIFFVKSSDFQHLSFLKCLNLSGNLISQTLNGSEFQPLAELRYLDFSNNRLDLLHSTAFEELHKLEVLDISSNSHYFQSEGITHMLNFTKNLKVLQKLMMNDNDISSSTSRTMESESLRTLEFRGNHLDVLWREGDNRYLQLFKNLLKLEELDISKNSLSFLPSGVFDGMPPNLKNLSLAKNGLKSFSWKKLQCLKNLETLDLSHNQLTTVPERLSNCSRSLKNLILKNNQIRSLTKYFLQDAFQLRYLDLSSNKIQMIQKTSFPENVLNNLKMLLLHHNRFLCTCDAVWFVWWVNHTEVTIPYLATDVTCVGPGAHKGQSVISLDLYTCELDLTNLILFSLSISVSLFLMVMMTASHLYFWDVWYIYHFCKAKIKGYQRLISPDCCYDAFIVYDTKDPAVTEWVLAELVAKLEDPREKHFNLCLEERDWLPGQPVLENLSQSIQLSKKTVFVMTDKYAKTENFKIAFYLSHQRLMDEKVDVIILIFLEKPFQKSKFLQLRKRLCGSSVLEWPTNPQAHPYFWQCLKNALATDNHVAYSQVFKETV
Description: (§1) TLR7/8/9 Inhibition Reporter Assays
(§2) HEK-Blue™-cells (Invivogen) overexpressing human TLR7, TLR8 or TLR9 receptors were used for screening inhibitors of these receptors using an inducible SEAP (secreted embryonic alkaline phosphatase) reporter gene under the control of the IFN-β minimal promoter fused to five NF-κB and AP-1-binding sites. Briefly, cells are seeded into Greiner 384 well plates (15000 cells per well for TLR7, 20.000 for TLR8 and 25,000 for TLR9) and then treated with test compounds in DMSO to yield a final dose response concentration range of 0.05 nM-50 μM. After a 30 minute compound pre-treatment at room temperature, the cells are then stimulated with a TLR7 ligand (gardiquimod at a final concentration of 7.5 μM), TLR8 ligand (R848 at a final concentration of 15.9 μM) or TLR9 ligand (ODN2006 at a final concentration of 5 nM) to activate NF-κB and AP-1 which induce the production of SEAP. After a 22 hour incubation at 37° C., 5% CO2, SEAP levels are determined with the addition of HEK-Blue™ Detection reagent (Invivogen), a cell culture medium that allows for detection of SEAP, according to manufacturer's specifications. The percent inhibition is determined as the % reduction in the HEK-Blue signal present in wells treated with agonist plus DMSO alone compared to wells treated with a known inhibitor.

[2] = molecular target: T2, human TLR8 (Homo sapiens, UniProt Q9NR97); test: TLR8 inhibition reporter assay (HEK-Blue SEAP); conditions: HEK-Blue cells overexpressing human TLR8, stimulated with R848 15.9 μM, 22 hour incubation
T2 construct: host or cells: HEK-Blue cells
T2 sequence (Q9NR97 27-1041): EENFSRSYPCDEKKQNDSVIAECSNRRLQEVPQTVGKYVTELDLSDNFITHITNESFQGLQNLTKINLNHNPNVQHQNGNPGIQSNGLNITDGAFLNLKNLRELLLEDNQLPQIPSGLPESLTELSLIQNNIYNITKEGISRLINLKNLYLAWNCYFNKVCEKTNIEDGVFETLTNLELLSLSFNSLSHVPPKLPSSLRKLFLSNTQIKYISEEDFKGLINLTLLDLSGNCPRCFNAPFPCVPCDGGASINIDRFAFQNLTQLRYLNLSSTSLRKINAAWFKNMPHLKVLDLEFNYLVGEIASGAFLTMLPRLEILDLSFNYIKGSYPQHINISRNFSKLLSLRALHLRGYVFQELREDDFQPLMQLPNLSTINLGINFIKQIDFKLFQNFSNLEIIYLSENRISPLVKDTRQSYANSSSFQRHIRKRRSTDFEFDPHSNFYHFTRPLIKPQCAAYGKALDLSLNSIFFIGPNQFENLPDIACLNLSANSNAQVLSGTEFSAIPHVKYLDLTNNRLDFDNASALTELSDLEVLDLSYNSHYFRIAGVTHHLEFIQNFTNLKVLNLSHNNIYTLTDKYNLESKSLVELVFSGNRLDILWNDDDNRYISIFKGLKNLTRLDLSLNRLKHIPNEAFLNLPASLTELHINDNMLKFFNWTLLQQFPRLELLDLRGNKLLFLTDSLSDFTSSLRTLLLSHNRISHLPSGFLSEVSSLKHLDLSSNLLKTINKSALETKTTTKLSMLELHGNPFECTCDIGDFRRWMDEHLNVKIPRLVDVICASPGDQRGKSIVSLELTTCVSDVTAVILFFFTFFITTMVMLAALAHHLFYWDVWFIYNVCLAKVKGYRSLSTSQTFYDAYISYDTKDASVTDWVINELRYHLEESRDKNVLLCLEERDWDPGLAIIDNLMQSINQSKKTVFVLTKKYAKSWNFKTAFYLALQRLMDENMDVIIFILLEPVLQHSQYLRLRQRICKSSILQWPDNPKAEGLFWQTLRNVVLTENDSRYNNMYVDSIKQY
Description: as §1, §2

[3] = molecular target: T3, human TLR9 (Homo sapiens, UniProt Q9NR96); test: TLR9 inhibition reporter assay (HEK-Blue SEAP); conditions: HEK-Blue cells overexpressing human TLR9, stimulated with ODN2006 5 nM, 22 hour incubation
T3 construct: host or cells: HEK-Blue cells
T3 sequence (Q9NR96 26-1032): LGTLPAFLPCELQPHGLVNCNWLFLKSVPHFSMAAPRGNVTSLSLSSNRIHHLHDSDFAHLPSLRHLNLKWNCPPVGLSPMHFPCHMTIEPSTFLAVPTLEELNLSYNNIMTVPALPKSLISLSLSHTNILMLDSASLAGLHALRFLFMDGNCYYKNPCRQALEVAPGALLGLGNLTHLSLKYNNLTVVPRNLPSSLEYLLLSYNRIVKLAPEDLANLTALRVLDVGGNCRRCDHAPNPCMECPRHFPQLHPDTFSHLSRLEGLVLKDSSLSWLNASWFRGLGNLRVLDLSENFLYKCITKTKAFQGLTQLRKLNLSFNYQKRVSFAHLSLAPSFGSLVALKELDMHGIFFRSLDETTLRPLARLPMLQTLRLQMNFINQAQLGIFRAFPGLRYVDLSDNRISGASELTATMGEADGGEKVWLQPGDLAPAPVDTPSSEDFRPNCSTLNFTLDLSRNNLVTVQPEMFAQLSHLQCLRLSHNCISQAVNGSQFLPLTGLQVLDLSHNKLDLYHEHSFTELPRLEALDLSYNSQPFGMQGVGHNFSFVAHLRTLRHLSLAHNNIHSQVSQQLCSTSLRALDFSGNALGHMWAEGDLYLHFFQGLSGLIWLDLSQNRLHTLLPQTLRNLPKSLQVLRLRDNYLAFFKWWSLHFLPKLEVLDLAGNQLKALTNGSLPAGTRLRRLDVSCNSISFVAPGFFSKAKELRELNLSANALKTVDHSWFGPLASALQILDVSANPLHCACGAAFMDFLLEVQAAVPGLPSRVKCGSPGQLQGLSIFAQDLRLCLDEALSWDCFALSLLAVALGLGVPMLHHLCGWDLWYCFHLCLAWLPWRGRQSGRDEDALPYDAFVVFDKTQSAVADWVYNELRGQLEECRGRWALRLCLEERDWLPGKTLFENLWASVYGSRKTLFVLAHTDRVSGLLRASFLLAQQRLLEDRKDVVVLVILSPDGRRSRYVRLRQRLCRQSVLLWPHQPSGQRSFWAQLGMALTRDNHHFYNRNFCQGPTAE
Description: as §1, §2

Structure (SMILES) | IC50 [1] [nM] | IC50 [2] [nM] | IC50 [3] [nM]
COc1ccc(-c2[nH]c3ccc(OCC(=O)NCCN)cc3c2C(C)C)cc1OC [Example 117, N-(2-aminoethyl)-2-((2-(3,4-dimethoxyphenyl)-3-isopropyl-1H-indol-5-yl)oxy)acetamide] | 120 | 36.1 | 1570
CNC(=O)CN1CCC(Oc2ccc3[nH]c(-c4cn(C)c(=O)c(C)c4C)c(C(C)C)c3c2)CC1 [Example 115, 2-(4-((3-isopropyl-2-(1,4,5-trimethyl-6-oxo-1,6-dihydropyridin-3-yl)-1H-indol-5-yl)oxy)piperidin-1-yl)-N-methylacetamide] | 39.7 | 8.6 | 
Cc1cc(-c2[nH]c3ccc(O[C@H]4CCCN(CC(=O)N(C)C)C4)cc3c2C(C)C)cn(C)c1=O [Example 82, (S)-2-(3-((2-(1,5-dimethyl-6-oxo-1,6-dihydropyridin-3-yl)-3-isopropyl-1H-indol-5-yl)oxy)piperidin-1-yl)-N,N-dimethylacetamide] | 17.3 | 27.6 | 40600
Cc1cc(-c2[nH]c3ccc(OCCN4CCOCC4)cc3c2C(C)C)ccn1 [Example 175, 4-(2-((3-isopropyl-2-(2-methylpyridin-4-yl)-1H-indol-5-yl)oxy)ethyl)morpholine] | 439 | 17.5 | 9940
Cc1cc(-c2[nH]c3ccc(OC4CCN(C5CCOCC5)CC4)cc3c2C(C)C)cn(C)c1=O [Example 39, 5-(3-isopropyl-5-((1-(tetrahydro-2H-pyran-4-yl)piperidin-4-yl)oxy)-1H-indol-2-yl)-1,3-dimethylpyridin-2(1H)-one] | 2.5 | 0.5 | 8190
COc1ccc(-c2[nH]c3ccc(OCCC4CCNCC4)cc3c2C(C)C)cc1OC [Example 158, 2-(3,4-dimethoxyphenyl)-3-isopropyl-5-(2-(piperidin-4-yl)ethoxy)-1H-indole] | 49 | 27.6 | 2990
Cc1c(-c2[nH]c3ccc(OCC4CCN(C(=O)CN(C)C)CC4)cc3c2C(C)C)cn2cnnc2c1C [Example 106, 1-(4-(((2-(7,8-dimethyl-[1,2,4]triazolo[4,3-a]pyridin-6-yl)-3-isopropyl-1H-indol-5-yl)oxy)methyl)piperidin-1-yl)-2-(dimethylamino)ethan-1-one] | 4.6 | 57.8 | 2110
Cc1cc(-c2[nH]c3ccc(OC4CCCN(CC(=O)N(C)C)C4)cc3c2C(C)C)cn(C)c1=O (centres unmarked) [Example 84, 2-(3-((2-(1,5-dimethyl-6-oxo-1,6-dihydropyridin-3-yl)-3-isopropyl-1H-indol-5-yl)oxy)piperidin-1-yl)-N,N-dimethylacetamide] | 6.5 | 2.9 | 16900
Cc1cc(-c2[nH]c3ccc(O[C@H]4CCCN(C)C4)cc3c2C(C)C)cn(C)c1=O [Example 37, (S)-5-(3-isopropyl-5-((1-methylpiperidin-3-yl)oxy)-1H-indol-2-yl)-1,3-dimethylpyridin-2(1H)-one] | 12.8 | 56.3 | 46800
COc1cc(-c2[nH]c3ccc(OC4CCN(CC(=O)N(C)C)CC4)cc3c2C(C)C)cn2ncnc12 [Example 93, 2-(4-((3-isopropyl-2-(8-methoxy-[1,2,4]triazolo[1,5-a]pyridin-6-yl)-1H-indol-5-yl)oxy)piperidin-1-yl)-N,N-dimethylacetamide] |  | 2.6 | 1810
Cc1cc(-c2[nH]c3ccc(OCc4c[nH]cn4)cc3c2C(C)C)ccn1 [Example 178, 5-((1H-imidazol-4-yl)methoxy)-3-isopropyl-2-(2-methylpyridin-4-yl)-1H-indole] |  |  | > 50000
Cc1cc(-c2[nH]c3ccc(OCc4c[nH]cn4)cc3c2C(C)C)ccn1 [Example 176, 5-((1H-imidazol-4-yl)methoxy)-3-isopropyl-2-(2-methylpyridin-4-yl)-1H-indole] |  |  | 13600
Cc1cc(-c2[nH]c3ccc(OC4CCN(CCC(F)(F)F)CC4)cc3c2C(C)C)ccn1 [Example 187, 3-isopropyl-2-(2-methylpyridin-4-yl)-5-((1-(3,3,3-trifluoropropyl)piperidin-4-yl)oxy)-1H-indole] | 257 | 3.9 | 
